Results on 4 compounds are retold here after PubChem BioAssay AID1259407 (Chemical Carcinogenesis Research Information System (CCRIS), 2018).

The structures appear in SMILES notation. Activity calls are given as the source filed them. No rule for the calls is given here.

The subject of this series is CCRIS mutagenicity, Ames/micronucleus/aberration tests. Kind of series: CCRIS mutagenicity studies.
Setting [1] is: Test System: AMES SALMONELLA TYPHIMURIUM, Strain/Indicator: TA98, Metabolic Activation: NONE.
[2] abbreviates: Test System: AMES SALMONELLA TYPHIMURIUM, Strain/Indicator: TA100, Metabolic Activation: NONE.
Where [3] appears, read: Test System: AMES SALMONELLA TYPHIMURIUM, Strain/Indicator: TA98, Metabolic Activation: NONE, Method: PREINCUBATION
[4] abbreviates: Test System: AMES SALMONELLA TYPHIMURIUM, Strain/Indicator: TA100, Metabolic Activation: NONE, Method: PREINCUBATION

Regarding `CC(=O)OCC(=O)NCCCOc1cccc(CN2CCCCC2)c1`, the mutagenic call runs as follows: under setting [1], “inactive; negative”; (Test System: AMES SALMONELLA TYPHIMURIUM, Strain/Indicator: TA98, Metabolic Activation: RAT, LIVER, S-9, PHENOBARBITAL AND 5,6-BENZOFLAVONE) “inactive; negative”; under setting [2], “inactive; negative”; (Test System: AMES SALMONELLA TYPHIMURIUM, Strain/Indicator: TA100, Metabolic Activation: RAT, LIVER, S-9, PHENOBARBITAL AND 5,6-BENZOFLAVONE) “inactive; negative”; (Test System: AMES SALMONELLA TYPHIMURIUM, Strain/Indicator: TA1535, Metabolic Activation: NONE) “inactive; negative”; (Test System: AMES SALMONELLA TYPHIMURIUM, Strain/Indicator: TA1535, Metabolic Activation: RAT, LIVER, S-9, PHENOBARBITAL AND 5,6-BENZOFLAVONE) “inactive; negative”. In addition, the mutagenic call is, setting by setting: (Test System: AMES SALMONELLA TYPHIMURIUM, Strain/Indicator: TA1537, Metabolic Activation: NONE) “inactive; negative”; (Test System: AMES SALMONELLA TYPHIMURIUM, Strain/Indicator: TA1537, Metabolic Activation: RAT, LIVER, S-9, PHENOBARBITAL AND 5,6-BENZOFLAVONE) “inactive; negative”; (Test System: AMES SALMONELLA TYPHIMURIUM, Strain/Indicator: TA1538, Metabolic Activation: NONE) “inactive; negative”; (Test System: AMES SALMONELLA TYPHIMURIUM, Strain/Indicator: TA1538, Metabolic Activation: RAT, LIVER, S-9, PHENOBARBITAL AND 5,6-BENZOFLAVONE) “inactive; negative”; (Test System: E. COLI, Strain/Indicator: WP2 UVRA, Metabolic Activation: NONE) “inactive; negative”; (Test System: E. COLI, Strain/Indicator: WP2 UVRA, Metabolic Activation: RAT, LIVER, S-9, PHENOBARBITAL AND 5,6-BENZOFLAVONE) “inactive; negative”.

Turning to `O=NN(CCCl)C(=O)NC1CCCCC1`, the mutagenic call runs as follows: (End Point: IN VITRO CHROMOSOMAL ABERRATIONS, Test System: HUMAN HCT116/3-6 CELLS, Metabolic Activation: NONE) “active; positive”; (End Point: IN VITRO CHROMOSOMAL ABERRATIONS, Test System: HUMAN HCT116 CELLS, Metabolic Activation: NONE) “active; positive”; (End Point: IN VITRO CHROMOSOMAL ABERRATIONS, Test System: HUMAN MT1 CELLS, Metabolic Activation: NONE) “active; positive”; (End Point: IN VITRO CHROMOSOMAL ABERRATIONS, Test System: HUMAN TK6 CELLS, Metabolic Activation: NONE) “active; positive”; (Test System: AMES SALMONELLA TYPHIMURIUM, Strain/Indicator: TA97, Metabolic Activation: NONE, Method: STANDARD PLATE) “inactive; negative”; (Test System: AMES SALMONELLA TYPHIMURIUM, Strain/Indicator: TA97, Metabolic Activation: RAT, LIVER, S-9, PHENOBARBITAL AND ALPHA-NAPHTHOFLAVONE, Method: STANDARD PLATE) “inactive; negative”. The mutagenic call under setting [3] is “inactive; negative”; the mutagenic call (Test System: AMES SALMONELLA TYPHIMURIUM, Strain/Indicator: TA98, Metabolic Activation: NONE, Method: STANDARD PLATE) is “inactive; negative”; the mutagenic call (Test System: AMES SALMONELLA TYPHIMURIUM, Strain/Indicator: TA98, Metabolic Activation: RAT, LIVER, S-9, PHENOBARBITAL AND ALPHA-NAPHTHOFLAVONE, Method: STANDARD PLATE) is “inactive; negative”; the mutagenic call (Test System: AMES SALMONELLA TYPHIMURIUM, Strain/Indicator: TA98, Metabolic Activation: S-9, Method: PREINCUBATION) was “inactive; negative”; the mutagenic call under setting [4] is “active; positive”; the mutagenic call (Test System: AMES SALMONELLA TYPHIMURIUM, Strain/Indicator: TA100, Metabolic Activation: NONE, Method: STANDARD PLATE) was “active; positive”. Further, the mutagenic call runs as follows: (Test System: AMES SALMONELLA TYPHIMURIUM, Strain/Indicator: TA100, Metabolic Activation: RAT, LIVER, S-9, PHENOBARBITAL AND ALPHA-NAPHTHOFLAVONE, Method: STANDARD PLATE) “active; positive”; (Test System: AMES SALMONELLA TYPHIMURIUM, Strain/Indicator: TA100, Metabolic Activation: S-9, Method: PREINCUBATION) “active; positive”; (Test System: AMES SALMONELLA TYPHIMURIUM, Strain/Indicator: TA1535, Metabolic Activation: NONE, Method: STANDARD PLATE) “active; positive”; (Test System: AMES SALMONELLA TYPHIMURIUM, Strain/Indicator: TA1535, Metabolic Activation: RAT, LIVER, S-9, PHENOBARBITAL AND ALPHA-NAPHTHOFLAVONE, Method: STANDARD PLATE) “active; positive”; (Test System: CHINESE HAMSTER V-79, Strain/Indicator: V-79/6-THIOGUANINE, Metabolic Activation: NONE, Method: STANDARD PLATE) “active; positive”.

Regarding `O=C(OCc1cccc([N+](=O)[O-])c1)c1ccccc1`, the mutagenic call was “inactive; negative” under setting [3]; “inactive; negative” under setting [4]; “inactive; negative” (Test System: AMES SALMONELLA TYPHIMURIUM, Strain/Indicator: TA100, Metabolic Activation: RAT, LIVER, S-9, AROCLOR 1254, Method: PREINCUBATION).

In the case of `O=C(O)CC(Cl)C(=O)O` (stereo not given), the mutagenic call was “inactive; negative” under setting [1]; “inactive; negative” (Test System: AMES SALMONELLA TYPHIMURIUM, Strain/Indicator: TA98, Metabolic Activation: RAT, LIVER, S-9, AROCLOR 1254); “inactive; negative” under setting [2]; “inactive; negative” (Test System: AMES SALMONELLA TYPHIMURIUM, Strain/Indicator: TA100, Metabolic Activation: RAT, LIVER, S-9, AROCLOR 1254); “inactive; negative” (Test System: AMES SALMONELLA TYPHIMURIUM, Strain/Indicator: TA102, Metabolic Activation: NONE); “inactive; negative” (Test System: AMES SALMONELLA TYPHIMURIUM, Strain/Indicator: TA102, Metabolic Activation: RAT, LIVER, S-9, AROCLOR 1254). Further, the mutagenic call was “inactive; negative” (Test System: AMES SALMONELLA TYPHIMURIUM, Strain/Indicator: TA104, Metabolic Activation: NONE) and “inactive; negative” (Test System: AMES SALMONELLA TYPHIMURIUM, Strain/Indicator: TA104, Metabolic Activation: RAT, LIVER, S-9, AROCLOR 1254).
